From patent US11453640B2, “Small molecules for disrupting the super elongation complex and inhibiting transcription elongation for cancer therapy” (NORTHWESTERN UNIVERSITY, priority 2018, dated 2022) come the findings set out here.

The subject of assay [1] is SEC components AFF1 and AFF4. Description: Western blotting of SEC and P-TEFb component protein levels in treated cells. Conditions: HEK293T and HCT-116 cells, 20 μM, 6 hr. Format: cell-based, human. The source says:
(§1) FIG. 1. Peptidomimetic identification of disruptors of the AFF4-CCNT1 interaction within the Super Elongation Complex. (A) Schematic for the identification of small molecule inhibitors of the AFF4-CCNT1 interaction using in silico high-throughput screening. Compounds from the ZINC database were docked with the AFF4-CCNT1 structure (4IMY) using a three-tier glide-docking algorithm, which led to 40 candidates. Residues forming the deep binding pocket of CCNT1 are labeled orange and residues of the AFF4 peptide are labeled red. (B) Validation screening identified KL-1 as a potential SEC disruptor using AlphaLISA screening. […] The Ki constants of both compounds were measured with the AlphaLISA assays. […] 5 μl, 10 and 20 μl cell lysates were loaded and the protein levels of AFF1, AFF4, CCNT1, CDK9 and Tubulin (load control) were determined by western blotting.
FIG. 8, related to FIG. 1. […] 293T cells were treated with 20 μM of KL-1 or KL-2 for 6 hr, and the protein levels of BRD2, BRD4, Pol II (RPB1), SPT5, MED26, MYC, HSP90 (load control) and Tubulin (load control) were measured by western blotting. […] HCT-116 cells were treated with 20 μM of KL-1 or KL-2 for 6 hr, and the protein levels of AFF1, AFF4, CCNT1, CDK9 and Tubulin (load control) were determined by western blotting. […] The log2CPM (counts per million) of the SEC subunits were calculated with HTseq. […]
For orientation: A western blot detects proteins with antibodies after separation by electrophoresis.

Assay [2] has as its system AFF1 and AFF4 occupancy on chromatin. Kind of assay: ChIP-seq of AFF1 and AFF4 chromatin occupancy in HEK293T cells. The format is cell-based, human. The following applies: 6 hr.
From the text: as §1
Chromatin Immunoprecipitation Sequencing. […] ChIP-seq reads were aligned to the Drosophila genome (UCSC dm3) or human genome (UCSC hgl9). Alignments were processed with Bowtie version 1.1.2, allowing only uniquely mapping reads with up to two mismatches within the 50 bp read. The resulting reads were extended to 150 bp toward the interior of the sequenced fragment and normalized to total reads aligned (reads per million, r.p.m.). […] P-values were calculated with a two-sided Kolmogorov-Smirnov test. […]

Take `COc1cccc(C(=O)CC(=O)C(=O)Nc2cc(Cl)ccc2C)c1` [KL-1, N-(5-chloro-2-methylphenyl)-4-oxo-4-(3-methoxyphenyl)-2-oxobutanamide]: in assay [1], the “protein levels of CCNT1, CDK9, Pol II, BRD2 and BRD4” value was “no major effect”; the “protein levels of SEC components AFF1 and AFF4” value is “led to depletion of SEC components AFF1 and AFF4”. For the same compound, the “chromatin occupancy of AFF1 and AFF4” value in assay [2] was “decreased occupancy of AFF1 and AFF4”.
